Laboratory results from patent CN108129355A, “一种盐酸益母草碱α晶型及其制备方法和应用” (Jingde Xinxing Biological Technology Co Ltd, priority 2018, dated 2018).

Assays:
Format in all cases: physicochemical
[1] = Strong light (4500lx±500lx) stability
[2] = High temperature (60℃) stability
Solubility test (溶解度试验) = conditions: stated in words; values of table 2 missing in this copy
[3] = High humidity (RH92.5%) stability

## COc1cc(C(=O)OCCCCNC(=N)N)cc(OC)c1O [盐酸益母草碱α晶型, 盐酸益母草碱]
[1]
  crystal form stability (X-ray powder diffraction result): X-射线粉末衍射结果均未发生变化,仍保持原本晶型
[2]
  crystal form stability (X-ray powder diffraction result): X-射线粉末衍射结果均未发生变化,仍保持原本晶型
Solubility test (溶解度试验)
  solubility: 较好的溶解性
[3]
  crystal form stability (X-ray powder diffraction result): X-射线粉末衍射结果均未发生变化,仍保持原本晶型
